Measurements: patent publication US12365674B2, “Inhibitors of histone deacetylase useful for the treatment or prevention of HIV infection” (Merck Sharp & Dohme LLC, priority 2019, dated 2025)

Target: T1, HDAC6 (Homo sapiens, UniProt Q9UBN7)
T1 sequence (Q9UBN7 1-1215): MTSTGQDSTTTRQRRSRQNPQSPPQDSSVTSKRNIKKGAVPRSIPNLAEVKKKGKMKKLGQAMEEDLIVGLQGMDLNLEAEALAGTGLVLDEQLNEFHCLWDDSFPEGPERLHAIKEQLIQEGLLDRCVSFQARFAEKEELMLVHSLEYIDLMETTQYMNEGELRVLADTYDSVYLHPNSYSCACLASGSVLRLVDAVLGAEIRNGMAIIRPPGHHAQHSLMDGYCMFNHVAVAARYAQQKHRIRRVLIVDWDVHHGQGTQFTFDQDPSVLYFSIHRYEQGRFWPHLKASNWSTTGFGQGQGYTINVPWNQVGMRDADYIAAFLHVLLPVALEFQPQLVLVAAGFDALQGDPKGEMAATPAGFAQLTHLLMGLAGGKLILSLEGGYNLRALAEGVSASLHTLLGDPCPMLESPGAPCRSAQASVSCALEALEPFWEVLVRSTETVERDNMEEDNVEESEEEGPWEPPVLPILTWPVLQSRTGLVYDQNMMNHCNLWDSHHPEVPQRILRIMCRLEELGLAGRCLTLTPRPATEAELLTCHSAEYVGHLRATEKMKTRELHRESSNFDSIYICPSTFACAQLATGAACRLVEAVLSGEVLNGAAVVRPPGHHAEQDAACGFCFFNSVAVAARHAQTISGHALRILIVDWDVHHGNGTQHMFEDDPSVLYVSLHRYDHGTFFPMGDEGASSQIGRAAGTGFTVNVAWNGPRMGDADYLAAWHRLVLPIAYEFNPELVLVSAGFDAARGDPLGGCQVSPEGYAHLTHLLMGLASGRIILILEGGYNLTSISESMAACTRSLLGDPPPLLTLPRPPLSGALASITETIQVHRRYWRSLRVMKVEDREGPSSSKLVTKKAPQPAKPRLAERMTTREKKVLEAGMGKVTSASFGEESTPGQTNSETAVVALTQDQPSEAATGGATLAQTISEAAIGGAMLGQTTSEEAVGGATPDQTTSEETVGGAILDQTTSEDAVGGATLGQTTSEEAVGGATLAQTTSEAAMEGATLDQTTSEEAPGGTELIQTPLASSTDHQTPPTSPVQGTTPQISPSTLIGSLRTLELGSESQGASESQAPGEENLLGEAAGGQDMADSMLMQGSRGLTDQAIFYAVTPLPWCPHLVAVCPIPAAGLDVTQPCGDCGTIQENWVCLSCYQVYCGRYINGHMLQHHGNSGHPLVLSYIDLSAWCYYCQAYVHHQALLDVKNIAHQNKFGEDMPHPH
Test: Human HDAC enzyme inhibitor Fluor-de-Lys assay, HDAC6
Assay type: biochemical
Conditions: 1.3 nM enzyme, 2.5 μM substrate BML-KI104, 3 h pre-incubation, 60 min reaction; read-out: HDAC6_IC50
Source text: Recombinant human HDAC8 (catalog number BML-SE145-0100) and HDAC10 (catalog number BML-SE559-0050) enzymes, HDAC substrates BML-KI104 and BML-KI178, and HDAC developer solutions BML-KI105 and BML-KI176 were purchased from Enzo Life Sciences (Farmingdale, NY). Recombinant human HDAC5 and HDAC11 were purchased from BPS Bioscience (San Diego, CA)(catalog numbers 50045 and 50021). Substrate Boc-Lys(TFA)-AMC was obtained from Bachem (Bupendorf, Switzerland) (catalog number 1-1985). HDAC inhibitor suberoylanilide hydroxamic acid (SAHA) was obtained from Indofine (Hillsborough Township, NJ) and trichostatin A (TSA) was obtained from Sigma-Aldrich (St. Louis, MO). […] HEPES pH 8.0 was obtained from Boston BioProducts (Ashland, MA), Tween-20 from Fisher Scientific (Hampton, NH)(catalog number BP337), TCEP from Calbiochem and 7.5% bovine serum albumin (BSA) from Life Technologies (Carlsbad, CA) (catalog number 15260037). 384-well, black assay plates were obtained from Corning (Corning, NY) (catalog number 3575).
The histone deacetylase activities of HDAC1, HDAC2, HDAC3, HDAC6, and HDAC8 were measured in modified Fluor-de-Lys assays in 384-well format. In this assay, HDAC enzymes are initially incubated with an ε-acetyl (or -trifluoroacetyl)-L-lysine-containing substrate with a C-terminal amide having aminomethylcoumarin as the amine component. HDACs cleave the ε-acetyl group, rendering the resulting product susceptible to AMC cleavage by trypsin. The released AMC is then detected by its fluorescence.
The HDAC 1, 2 assays employed buffer A, which contained 20 mM HEPES, pH 8.0, 1 mM MgCl2, 137 mM NaCl, 2.7 mM KCl, 0.05% BSA. The HDAC3/SMRT assay employed buffer B, consisting of 20 mM HEPES, pH 8.0, 1 mM MgCl2, 50 mM NaCl, 2.7 mM KCl, 0.05% BSA, 0.005% Tween 20, and 10 μM IP4. The HDAC6 assay employed buffer C, consisting of 20 mM HEPES, pH 8.0, 1 mM MgCl2, 137 mM NaCl, 2.7 mM KCl, 0.5 mM TCEP (Calbiochem) and 0.05% BSA. The HDAC8 assay employed buffer D, consisting of 20 mM HEPES, pH 8.0, 1 mM MgCl2, 100 mM NaCl, 20 mM KCl, 0.1% n-octyl-β-D-glucoside (Anatrace, Maumee, OH) and 0.05% BSA. All steps were performed at room temperature (23° C.). The assay was performed by pre-incubating serial dilutions of test compounds with the target HDAC prior to initiation with substrate. Each compound was titrated in a 10-point dose response, using a 1:3 fold dilution scheme, with 0.15 ul of solution added by ECHO555 to the plate, followed by the addition of 20 μl of the appropriate HDAC isoform diluted in appropriate assay buffer. […] Final conditions used for each assay were: 1. HDAC 1, 0.3 nM total enzyme, 20 μM substrate BML-K1104; 2. HDAC 2, 1.5 nM total enzyme, 40 μM substrate BML-K1104; 3. HDAC 3/SMRT, 0.3 nM total enzyme, 20 μM substrate BML-K1104; 4. HDAC 6, 1.3 nM total enzyme, 2.5 μM substrate BML-K1104; 5. HDAC 8, 1.3 nM total enzyme, 200 μM substrate BML-K1178; the final high dose of test compound was 30 μM. For potent compounds, 900 nM was used as the final high dose. The reactions were stopped and developed by addition of 30 ul of HDAC developer solution containing a saturating level of HDAC inhibitor as follows: 1.

Compound	IC50 [µM]
N[C@@H](COCCCC(=O)c1ccon1)c1ncc(-c2ccccc2F)[nH]1 [Compound 2, (R)-4-(2-amino-2-(5-(2-fluorophenyl)-1H-imidazol-2-yl)ethoxy)-1-(isoxazol-3-yl)butan-1-one]	> 0.9
CCC(=O)CCCOC[C@H](NC(=O)c1cncs1)c1ncc(-c2cc3ccccc3nc2OC)[nH]1 [Compound 5, N-{(1R)-1-[5-(2-methoxyquinolin-3-yl)-1H-imidazol-2-yl]-2-[(4-oxohexyl)oxy]ethyl}-1,3-thiazole-5-carboxamide]	> 45
CCC(=O)CCCOC[C@H](NC(=O)C12CCN(CC1)CC2)c1ncc(-c2cc3ccccc3nc2OC)[nH]1 [Compound 6, N-{(1R)-1-[5-(2-methoxyquinolin-3-yl)-1H-imidazol-2-yl]-2-[(4-oxohexyl)oxy]ethyl}-1-azabicyclo[2.2.2]octane-4-carboxamide]	> 45
CCC(=O)CCCOC[C@H](NC(=O)[C@H]1CC12CCN(CC)CC2)c1ncc(-c2cc3ccccc3nc2OC)[nH]1 [Compound 7, (1S)-6-ethyl-N-{(1R)-1-[5-(2-methoxyquinolin-3-yl)-1H-imidazol-2-yl]-2-[(4-oxohexyl)oxy]ethyl}-6-azaspiro[2.5]octane-1-carboxamide]	19
CNC(=O)C(=O)CCCOC[C@H](NC(=O)c1cncs1)c1ncc(-c2cc3ccccc3nc2OC)[nH]1 [Compound 8, N-[(1R)-1-[5-(2-methoxyquinolin-3-yl)-1H-imidazol-2-yl]-2-{[5-(methylamino)-4,5-dioxopentyl]oxy}ethyl]-1,3-thiazole-5-carboxamide]	5.11
CNC(=O)C(=O)CCCOC[C@H](NC(=O)C12CCN(CC1)CC2)c1ncc(-c2cc3ccccc3nc2OC)[nH]1 [Compound 9, N-[(1R)-1-[5-(2-methoxyquinolin-3-yl)-1H-imidazol-2-yl]-2-{[5-(methylamino)-4,5-dioxopentyl]oxy}ethyl]-1-azabicyclo[2.2.2]octane-4-carboxamide]	> 45
COc1nc2ccccc2cc1-c1cnc([C@H](COCCCC(=O)c2ncco2)NC(=O)c2cncs2)[nH]1 [Compound 10, N-{(1R)-1-[5-(2-methoxyquinolin-3-yl)-1H-imidazol-2-yl]-2-[4-(1,3-oxazol-2-yl)-4-oxobutoxy]ethyl}-1,3-thiazole-5-carboxamide]	> 45
COc1nc2ccccc2cc1-c1cnc([C@H](COCCCC(=O)c2ncco2)NC(=O)[C@H]2CC23CCN(C)CC3)[nH]1 [Compound 11, (1S)-N-{(1R)-1-[5-(2-methoxyquinolin-3-yl)-1H-imidazol-2-yl]-2-[4-(1,3-oxazol-2-yl)-4-oxobutoxy]ethyl}-6-methyl-6-azaspiro[2.5]octane-1-carboxamide]	> 45
COc1nc2ccccc2cc1-c1cnc([C@H](COCCCC(=O)c2ncco2)NC(=O)C23CCN(CC2)CC3)[nH]1 [Compound 12, N-{(1R)-1-[5-(2-methoxyquinolin-3-yl)-1H-imidazol-2-yl]-2-[4-(1,3-oxazol-2-yl)-4-oxobutoxy]ethyl}-1-azabicyclo[2.2.2]octane-4-carboxamide]	> 45
COc1nc2ccccc2cc1-c1cnc([C@H](COCCCC(=O)c2ncco2)NC(=O)CN(C)C)[nH]1 [Compound 13, N-{(1R)-1-[5-(2-methoxyquinolin-3-yl)-1H-imidazol-2-yl]-2-[4-(1,3-oxazol-2-yl)-4-oxobutoxy]ethyl}-N~2~,N~2~- dimethylglycinamide]	> 45
COc1nc2ccccc2cc1-c1cnc([C@H](COCCCC(=O)c2ccon2)NC(=O)CN(C)C)[nH]1 [Compound 14, N-{(1R)-2-(4-isoxazol-3-yl-4-oxobutoxy)-1-[5-(2-methoxyquinolin-3-yl)-1H-imidazol-2-yl]ethyl}-N~2~,N~2~- dimethylglycinamide]	> 45
CN1CC(C(=O)N[C@@H](COCCCC(=O)c2ccon2)c2ncc(-c3ccccc3F)[nH]2)C1 [Compound 15, N-[(1R)-1-[5-(2-fluorophenyl)-1H-imidazol-2-yl]-2-(4-isoxazol-3-yl-4-oxobutoxy)ethyl]-1-methylazetidine-3-carboxamide]	> 0.9
CN1CC(C(=O)N[C@@H](COCCCC(=O)c2ccon2)c2[nH]c(-c3ccc(F)cc3)nc2Cl)C1 [Compound 16, N-[(1R)-1-[4-chloro-2-(4-fluorophenyl)-1H-imidazol-5-yl]-2-(4-isoxazol-3-yl-4-oxobutoxy)ethyl]-1-methylazetidine-3-carboxamide]	> 0.9
CN(C)CC(=O)N[C@@H](COCCCC(=O)c1ccon1)c1[nH]c(-c2ccc(F)cc2)nc1Cl [Compound 17, N-[(1R)-1-[4-chloro-2-(4-fluorophenyl)-1H-imidazol-5-yl]-2-(4-isoxazol-3-yl-4-oxobutoxy)ethyl]-N~2~,N~2~- dimethylglycinamide]	> 0.9
CN1CCC2(CC1)C[C@@H]2C(=O)N[C@@H](COCCCC(=O)c1ccon1)c1[nH]c(-c2ccc(F)cc2)nc1Cl [Compound 18, (1S)-N-[(1R)-1-[4-chloro-2-(4-fluorophenyl)-1H-imidazol-5-yl]-2-(4-isoxazol-3-yl-4-oxobutoxy)ethyl]-6-methyl-6-azaspiro[2.5]octane-1-carboxamide]	> 0.9
COc1cc2nc(C)ccc2cc1-c1cnc([C@H](COCCCC(=O)c2cc(C)on2)NC(=O)C2CN(C)C2)[nH]1 [Compound 19, N-{(1R)-1-[5-(7-methoxy-2-methylquinolin-6-yl)-1H-imidazol-2-yl]-2-[4-(5-methylisoxazol-3-yl)-4-oxobutoxy]ethyl}-1-methylazetidine-3-carboxamide]	0.469
